PMC12957839, “Antiviral activity and mechanism of purine morpholine nucleoside analogues incorporating a sulfonamide fragment” (Journal of Advanced Research, 2025)
Converted amounts (≈) assume the structure as drawn.

Key:
Format in all cases: in vivo, Pepper mild mottle virus (PMMoV)
PMMoV [1] = experiment: Antiviral activity assay against PMMoV, curative activity; parameters: Curative activity: concentration or dose not given beside the values; conditions: against PMMoV, average of three replicates, ± standard deviation; for EC50: Pepper mild mottle virus, read-out: EC50 of curative activity
Procedure: (§1) Virions were isolated and extracted from leaves of N. benthamiana infected with PMMoV referring to the method recorded in the literature. And the inhibiting activities of C1–C38 against PMMoV were assessed with reference to the literature as well [26, 34].

PMMoV [2] = experiment: Antiviral activity assay against PMMoV, protective activity; parameters: Protective activity: concentration or dose not given beside the values; conditions: against PMMoV, average of three replicates, ± standard deviation; for EC50: Pepper mild mottle virus, read-out: EC50 of protective activity
Procedure: as §1

PMMoV [3] = experiment: Antiviral activity assay against PMMoV, inactivating activity; conditions: against PMMoV, average of three replicates, ± standard deviation; for pest or weed control at 500 µg/mL / EC50: Pepper mild mottle virus; for pest or weed control at 500 µg/mL: read-out: Inactivating activity; for EC50: read-out: EC50 of inactivating activity; for pest or weed control at 500 µg/mL / Inactivating activity: at 500 µg/mL
Procedure: as §1

EC50 (PMMoV [1]) [µg/mL]	EC50 (PMMoV [2]) [µg/mL]	EC50 (PMMoV [3]) [µg/mL]	SMILES	Curative activity (PMMoV [1]) [%]	Protective activity (PMMoV [2]) [%]	pest or weed control at 500 µg/mL (PMMoV [3]) [%]	Inactivating activity (PMMoV [3]) [%]
11.5 ± 4.4 (≈ 16.5 µM)	388 ± 16.6 (≈ 557 µM)	198 ± 16.1 (≈ 285 µM)	CC(=O)OCC1OC(n2cnc3c(N4CCOCC4)nc(F)nc32)C(NS(=O)(=O)c2ccc([N+](=O)[O-])cc2)C(OC(C)=O)C1OC(C)=O (centres unmarked) [C3]	67.0 ± 3.6	57.5 ± 4.3	68.9 ± 4.9	
219 ± 9 (≈ 308 µM)	475 ± 15.8 (≈ 667 µM)	141 ± 12.1 (≈ 198 µM)	CC(=O)OCC1OC(n2cnc3c(N4CCOCC4)nc(Cl)nc32)C(NS(=O)(=O)c2ccc([N+](=O)[O-])cc2)C(OC(C)=O)C1OC(C)=O (centres unmarked) [C4]	61.2 ± 3.7	52.6 ± 2.0	64.1 ± 3.5	
63.8 ± 5.3 (≈ 94.1 µM)	2280 ± 24.8 (≈ 3370 µM)	622 ± 14.7 (≈ 918 µM)	CC(=O)OCC1OC(n2cnc3c(N4CCOCC4)ncnc32)C(NS(=O)(=O)c2cccc([N+](=O)[O-])c2)C(OC(C)=O)C1OC(C)=O (centres unmarked) [C5]	60.3 ± 2.5	43.3 ± 2.3	47.5 ± 1.4	
132 ± 9.4 (≈ 194 µM)	358 ± 12.3 (≈ 528 µM)	182 ± 7.8 (≈ 268 µM)	CC(=O)OCC1OC(n2cnc3c(N4CCOCC4)ncnc32)C(NS(=O)(=O)c2ccccc2[N+](=O)[O-])C(OC(C)=O)C1OC(C)=O (centres unmarked) [C6]	67.0 ± 4.9	52.0 ± 2.3	60.8 ± 1.9	
281 ± 10.3 (≈ 427 µM)	793 ± 17.1 (≈ 1210 µM)	2415 ± 17.2 (≈ 3670 µM)	CC(=O)OCC1OC(n2cnc3c(N4CCOCC4)ncnc32)C(NS(=O)(=O)c2ccc(C#N)cc2)C(OC(C)=O)C1OC(C)=O (centres unmarked) [C7]	55.8 ± 1.3	44.7 ± 1.4	36.6 ± 3.2	
64.6 ± 4.6 (≈ 93.3 µM)	1040 ± 19.4 (≈ 1510 µM)	222 ± 4.8 (≈ 321 µM)	CC(=O)OCC1OC(n2cnc3c(N4CCOCC4)nc(Cl)nc32)C(NS(=O)(=O)c2ccc(C#N)cc2)C(OC(C)=O)C1OC(C)=O (centres unmarked) [C8]	69.6 ± 1.3	44.3 ± 1.8	56.6 ± 4	
33.3 ± 1.2 (≈ 49.9 µM)	267 ± 8.6 (≈ 401 µM)	103 ± 9.1 (≈ 155 µM)	CC(=O)OCC1OC(n2cnc3c(N4CCOCC4)ncnc32)C(NS(=O)(=O)c2ccc(Cl)cc2)C(OC(C)=O)C1OC(C)=O (centres unmarked) [C9]	70.9 ± 4.9	58.9 ± 4.0	65.8 ± 3.9	
22.2 ± 3.4 (≈ 33.3 µM)	17.8 ± 2.1 (≈ 26.7 µM)	16.3 ± 1.9 (≈ 24.4 µM)	CC(=O)OCC1OC(n2cnc3c(N4CCOCC4)ncnc32)C(NS(=O)(=O)c2cccc(Cl)c2)C(OC(C)=O)C1OC(C)=O (centres unmarked) [C10]	62.1 ± 5.8	67.0 ± 4.3	60.5	60.5 ± 1.8
372 ± 18.4 (≈ 545 µM)	225 ± 11.9 (≈ 329 µM)	497.1 ± 3 (≈ 729 µM)	CC(=O)OCC1OC(n2cnc3c(N4CCOCC4)nc(N)nc32)C(NS(=O)(=O)c2cccc(Cl)c2)C(OC(C)=O)C1OC(C)=O (centres unmarked) [C11]	51.8 ± 1.0	58.8 ± 3.1	51.8 ± 2.1	
53 ± 2.1 (≈ 80 µM)	134 ± 7.4 (≈ 203 µM)	43.1 ± 1.1 (≈ 65 µM)	COc1ccc(S(=O)(=O)NC2C(OC(C)=O)C(OC(C)=O)C(COC(C)=O)OC2n2cnc3c(N4CCOCC4)ncnc32)cc1 (centres unmarked) [C12]	63.5 ± 2.6	65.6 ± 4.7	71.5 ± 5	
20.9 ± 3 (≈ 30.7 µM)	596 ± 10.9 (≈ 876 µM)	458.1 ± 3.3 (≈ 673 µM)	COc1ccc(S(=O)(=O)NC2C(OC(C)=O)C(OC(C)=O)C(COC(C)=O)OC2n2cnc3c(N4CCOCC4)nc(F)nc32)cc1 (centres unmarked) [C13]	72.5 ± 2.6	46.5 ± 3.4	47.3 ± 2.7	
100 ± 8.9 (≈ 148 µM)	926 ± 11.4 (≈ 1370 µM)	4507 ± 24.2 (≈ 6650 µM)	COc1ccc(S(=O)(=O)NC2C(OC(C)=O)C(OC(C)=O)C(COC(C)=O)OC2n2cnc3c(N4CCOCC4)nc(N)nc32)cc1 (centres unmarked) [C14]	53.6 ± 2.4	38.3 ± 4.4	38.5 ± 2	
61 ± 5.4 (≈ 85.7 µM)	103 ± 6.4 (≈ 145 µM)	593 ± 13.7 (≈ 833 µM)	CC(=O)OCC1OC(n2cnc3c(N4CCOCC4)ncnc32)C(NS(=O)(=O)c2ccc(Br)cc2)C(OC(C)=O)C1OC(C)=O (centres unmarked) [C15]	65.6 ± 3.4	62.5 ± 3.3	47.7 ± 0.69	
48.5 ± 3.1 (≈ 68.2 µM)	664 ± 12.4 (≈ 933 µM)	171 ± 9.6 (≈ 241 µM)	CC(=O)OCC1OC(n2cnc3c(N4CCOCC4)ncnc32)C(NS(=O)(=O)c2cccc(Br)c2)C(OC(C)=O)C1OC(C)=O (centres unmarked) [C16]	58.9 ± 4.2	45.3 ± 2.5	55.9 ± 1.5	
16.1 ± 2.7 (≈ 22.6 µM)	140 ± 9.5 (≈ 197 µM)	84 ± 2.8 (≈ 118 µM)	CC(=O)OCC1OC(n2cnc3c(N4CCOCC4)ncnc32)C(NS(=O)(=O)c2ccccc2Br)C(OC(C)=O)C1OC(C)=O (centres unmarked) [C17]	70.5 ± 3.8	61.0 ± 5.3	59.9 ± 4	
24.7 ± 1.3 (≈ 39 µM)	994 ± 11.2 (≈ 1570 µM)	134 ± 8.5 (≈ 212 µM)	CC(=O)OCC1OC(n2cnc3c(N4CCOCC4)ncnc32)C(NS(=O)(=O)c2ccccc2)C(OC(C)=O)C1OC(C)=O (centres unmarked) [C18]	63.5 ± 2.5	41.9 ± 2.9	61.3 ± 2.8	
36.7 ± 3.7 (≈ 56.4 µM)	159 ± 11.8 (≈ 245 µM)	25.5 ± 4 (≈ 39.2 µM)	CC(=O)OCC1OC(n2cnc3c(N4CCOCC4)nc(F)nc32)C(NS(=O)(=O)c2ccccc2)C(OC(C)=O)C1OC(C)=O (centres unmarked) [C19]	69.5 ± 4.7	59.8 ± 3.6	69.7 ± 1.9	
30.1 ± 3.5 (≈ 45.1 µM)	292 ± 17.6 (≈ 438 µM)	28.5 ± 4.2 (≈ 42.7 µM)	CC(=O)OCC1OC(n2cnc3c(N4CCOCC4)nc(Cl)nc32)C(NS(=O)(=O)c2ccccc2)C(OC(C)=O)C1OC(C)=O (centres unmarked) [C20]	74.8 ± 4.8	54.8 ± 2.8	72 ± 4.2	
61.6 ± 5.3 (≈ 91.3 µM)	74 ± 5.1 (≈ 110 µM)	83.2 ± 3.7 (≈ 123 µM)	CC(=O)OCC1OC(n2cnc3c(N4CCOCC4)ncnc32)C(NS(=O)(=O)c2c(C)cc(C)cc2C)C(OC(C)=O)C1OC(C)=O (centres unmarked) [C21]	66.9 ± 1.8	60.7 ± 2.5	68.7 ± 4.5	
26.2 ± 1.3 (≈ 38 µM)	38 ± 3.5 (≈ 55.1 µM)	13.7 ± 1.6 (≈ 19.9 µM)	CC(=O)OCC1OC(n2cnc3c(N4CCOCC4)nc(N)nc32)C(NS(=O)(=O)c2c(C)cc(C)cc2C)C(OC(C)=O)C1OC(C)=O (centres unmarked) [C22]	67.6 ± 1.9	61.2 ± 1.6	61.3	61.3 ± 4.5
11.3 ± 3.3 (≈ 15.9 µM)	145 ± 7.7 (≈ 204 µM)	240 ± 17.8 (≈ 338 µM)	CC(=O)OCC1OC(n2cnc3c(N4CCOCC4)nc(Cl)nc32)C(NS(=O)(=O)c2c(C)cc(C)cc2C)C(OC(C)=O)C1OC(C)=O (centres unmarked) [C23]	69.0 ± 3.5	57.4 ± 1.6	55.4 ± 2.6	
45.1 ± 4.7 (≈ 64.4 µM)	788 ± 12.8 (≈ 1120 µM)	632 ± 15.2 (≈ 902 µM)	CC(=O)OCC1OC(n2cnc3c(N4CCOCC4)ncnc32)C(NS(=O)(=O)c2ccc(C(F)(F)F)cc2)C(OC(C)=O)C1OC(C)=O (centres unmarked) [C26]	67.6 ± 2.5	44.5 ± 1.6	45.5 ± 2.6	
51.1 ± 3.6 (≈ 69.5 µM)	534 ± 14.9 (≈ 726 µM)	184 ± 10 (≈ 251 µM)	CC(=O)OCC1OC(n2cnc3c(N4CCOCC4)nc(Cl)nc32)C(NS(=O)(=O)c2ccc(C(F)(F)F)cc2)C(OC(C)=O)C1OC(C)=O (centres unmarked) [C27]	69.9 ± 3.6	45.0 ± 3.4	62.4 ± 4.7	
45.4 ± 3 (≈ 63.2 µM)	633 ± 13.6 (≈ 881 µM)	576 ± 14.9 (≈ 801 µM)	CC(=O)OCC1OC(n2cnc3c(N4CCOCC4)nc(F)nc32)C(NS(=O)(=O)c2ccc(C(F)(F)F)cc2)C(OC(C)=O)C1OC(C)=O (centres unmarked) [C28]	69.4 ± 4.9	42.9 ± 0.7	44 ± 4.3	
64.8 ± 3.1 (≈ 92.5 µM)	88.4 ± 6.3 (≈ 126 µM)	353 ± 18.7 (≈ 504 µM)	CC(=O)OCC1OC(n2cnc3c(N4CCOCC4)ncnc32)C(NS(=O)(=O)c2cccc(C(F)(F)F)c2)C(OC(C)=O)C1OC(C)=O (centres unmarked) [C29]	69.8 ± 4.3	64.9 ± 4.7	53.4 ± 0.8	
60.2 ± 3.1 (≈ 92.5 µM)	262 ± 10.3 (≈ 402 µM)	20.4 ± 4.9 (≈ 31.4 µM)	CC(=O)OCC1OC(n2cnc3c(N4CCOCC4)ncnc32)C(NS(=O)(=O)c2ccc(F)cc2)C(OC(C)=O)C1OC(C)=O (centres unmarked) [C30]	67.9 ± 3.3	58.9 ± 3.8	61.7 ± 4.6	
29.6 ± 1.1 (≈ 44.3 µM)	99.6 ± 3.8 (≈ 149 µM)	50 ± 2 (≈ 74.8 µM)	CC(=O)OCC1OC(n2cnc3c(N4CCOCC4)nc(F)nc32)C(NS(=O)(=O)c2ccc(F)cc2)C(OC(C)=O)C1OC(C)=O (centres unmarked) [C31]	61.9 ± 3.3	56.0 ± 1.9	68.5 ± 1.7	
23.8 ± 5.5 (≈ 34.7 µM)	28.7 ± 4.4 (≈ 41.9 µM)	38 ± 4.4 (≈ 55.5 µM)	CC(=O)OCC1OC(n2cnc3c(N4CCOCC4)nc(Cl)nc32)C(NS(=O)(=O)c2ccc(F)cc2)C(OC(C)=O)C1OC(C)=O (centres unmarked) [C32]	68.0 ± 2.7	68.9 ± 2.0	67.9 ± 5.1	
